Measurements as given in PubChem BioAssay (NCI).
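Five concentrations, 48 hours, 96-well plates. Abbreviation: GI50, concentration required for 50% inhibition of growth. TGI is the concentration that stops growth completely.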

How the values were obtained:
Experiment in all cases: growth of human tumour cells (NCI), 48 h
A549 NSCLC = system: A549 NSCLC
HCC-2998 colon = system: HCC-2998 colon
HCT-116 colon = system: HCT-116 colon
OVCAR-3 ovarian = system: OVCAR-3 ovarian
OVCAR-5 ovarian = system: OVCAR-5 ovarian
SF-539 CNS = system: SF-539 CNS
SK-MEL-2 melanoma = system: SK-MEL-2 melanoma
SR leukemia = system: SR leukemia
TK-10 renal = system: TK-10 renal
U251 CNS = system: U251 CNS

Row | SMILES | GI50 (A549 NSCLC) | TGI (A549 NSCLC) | GI50 (HCC-2998 colon) | TGI (HCC-2998 colon) | GI50 (HCT-116 colon) | TGI (HCT-116 colon) | GI50 (OVCAR-3 ovarian) | TGI (OVCAR-3 ovarian) | TGI (OVCAR-5 ovarian) | GI50 (SF-539 CNS) | TGI (SF-539 CNS) | TGI (SK-MEL-2 melanoma) | GI50 (SR leukemia) | TGI (SR leukemia) | TGI (TK-10 renal) | GI50 (U251 CNS) | GI50 (OVCAR-5 ovarian) | GI50 (SK-MEL-2 melanoma) | GI50 (TK-10 renal) | TGI (U251 CNS)
1 | COC1C(OC(=O)/C=C/C=C/C=C/C=C/C(=O)O)CCC2(CO2)C1C1(C)OC1CC=C(C)C (stereo not drawn) | 0.308 µM | > 100 µM | 0.231 µM | > 71.4 µM | 0.12 µM | > 100 µM | 0.314 µM | > 80.9 µM | > 100 µM | 0.347 µM | > 100 µM | > 85.3 µM | 0.22 µM | 67.6 µM | > 100 µM | 0.032 µM |  |  |  | 
2 | CCN(Cc1ccccc1)c1ccc(/C=C2\COc3ccccc3C2=O)cc1 | > 1000 µM | > 1000 µM | > 1000 µM | > 1000 µM | 270 µM | > 1000 µM | 288 µM | > 1000 µM | > 1000 µM | > 1000 µM | > 1000 µM | > 1000 µM | 54 µM | > 1000 µM | > 1000 µM | > 1000 µM | > 1000 µM | > 1000 µM | > 1000 µM | > 1000 µM
3 | O=c1c2ccccc2c(=O)n2n1-c1cccc(c1)CSSCc1cccc-2c1 | > 100 µM | > 100 µM | > 100 µM | > 100 µM | > 100 µM | > 100 µM | > 100 µM | > 100 µM | > 100 µM | > 100 µM | > 100 µM | > 100 µM | > 100 µM | > 100 µM | > 100 µM |  | > 100 µM | > 100 µM | > 100 µM | > 100 µM
4 | CN1CCN(CCCOC(=O)c2c3c(n4ccccc24)C(=O)c2ncccc2C3=O)CC1 | < 0.01 µM | 0.0593 µM | < 0.0135 µM | 1.98 µM | < 0.01 µM | 2.91 µM | 0.0403 µM | 4.95 µM | 3.65 µM | < 0.0154 µM | 0.103 µM | 0.274 µM | < 0.01 µM | > 100 µM | 21.6 µM | < 0.01 µM | 0.357 µM | 0.0313 µM | 0.113 µM | 0.0768 µM
5 | Cc1cccc(-c2nc(=S)[nH][nH]2)c1 |  | > 100 µM |  | > 100 µM |  | > 100 µM |  | > 100 µM | > 100 µM |  | > 100 µM | > 100 µM |  | > 100 µM | > 100 µM |  |  |  |  | > 100 µM
6 | O=C(c1ccccc1)c1nc2ccc(Cl)cc2cc1C(Br)Br |  | 3.31 µM |  | 2.88 µM |  | 0.34 µM |  | 0.856 µM | 2 µM |  | 0.537 µM | 1.88 µM |  | 21.2 µM | 1.83 µM |  |  |  |  | 0.674 µM
7 | O=c1c(-c2cccc3ccccc23)c(-c2cccc3ccccc23)c1=O |  | 12 µM |  | 4.95 µM |  | 37.6 µM |  | 11.6 µM | > 84.9 µM |  | 4.75 µM | > 78.2 µM |  | > 32 µM | > 100 µM |  |  |  |  | 18.4 µM
8 | NCCNCCNCc1c2ccccc2c(CNCCNCCN)c2ccccc12 |  | > 100 µM |  | > 100 µM |  | > 100 µM |  | > 100 µM | > 100 µM |  | > 100 µM | > 100 µM |  | > 100 µM | > 100 µM |  |  |  |  | > 100 µM
9 | C[C@]12CC[C@H]3[C@@H](CCC4=CC(=O)CC[C@@]43C)[C@]1(O)CC[C@]2(O)C(=O)CO |  | > 100 µM |  | > 100 µM |  | > 100 µM |  | > 100 µM | > 100 µM |  | > 100 µM | > 100 µM |  | > 100 µM | > 100 µM |  |  |  |  | > 100 µM
10 | COc1cc(-c2csc(NC(=O)Nc3ccc(Cl)cc3)n2)cc(OC)c1OC | 3.15 µM | 13.4 µM | 3.9 µM | 18.8 µM | 2.83 µM | 8.12 µM | 2.54 µM | 7.23 µM | 21 µM | 2.98 µM | 13.7 µM | 5.04 µM | 4.36 µM | > 100 µM | 14.9 µM | 3.35 µM | 3.56 µM | 2.18 µM | 3.25 µM | 13.1 µM
11 | OC(c1ccccc1)c1c(-c2ccccc2)[nH]c(-c2ccccc2)c1C(O)c1ccccc1 (stereo not drawn) |  | 18.9 µM |  | 22.4 µM |  | 8.83 µM |  | 8.33 µM | 10.8 µM |  | 6.94 µM | 5.18 µM |  | 8.25 µM | 18.9 µM |  |  |  |  | 18.5 µM
12 | Clc1cccc(-c2cc(-c3ccc4c(c3)OCCO4)[nH]n2)c1 | 1.55 µM | 44.5 µM | 7.26 µM | 51.4 µM | 5.96 µM | 40.3 µM | 1.95 µM | 31.3 µM | 47.7 µM | 6.31 µM | 36.1 µM | 74.9 µM | 0.988 µM | 98.3 µM | 56.1 µM | 6.83 µM | 10.4 µM | 18.9 µM | 13.9 µM | 43 µM
13 | CC(C)OC(=O)Nc1c([N+](=O)[O-])cc(C(F)(F)F)cc1[N+](=O)[O-] |  | > 100 µM |  | > 100 µM |  | > 100 µM |  | > 100 µM | > 100 µM |  | 70.3 µM | > 100 µM |  | > 100 µM | > 100 µM |  |  |  |  | > 100 µM
14 | CC1=NC2(C(=O)O)C3(C(=O)O)N=C(C)OC3(C(F)(F)F)C2(C(F)(F)F)O1 (stereo not drawn) |  | > 100 µM |  | > 100 µM |  | > 100 µM |  | > 100 µM | > 100 µM |  | > 100 µM | > 100 µM |  | > 100 µM | > 100 µM |  |  |  |  | > 100 µM
15 | COc1ccc2c(c1[N+](=O)[O-])CC[C@@H]1[C@@H]2CC[C@]2(C)C(=O)CC[C@@H]12 | > 751 µM | > 1000 µM | > 25 µM | > 1000 µM | > 1000 µM |  | 631 µM | > 1000 µM | > 1000 µM | 300 µM | > 890 µM |  | > 25 µM | > 1000 µM | > 1000 µM | 476 µM | > 1000 µM | 275 µM | 577 µM | > 1000 µM
16 | Clc1ccc2c(NCCCCNc3nc(N4CCOCC4)nc4ccccc34)ccnc2c1 | 3.16 µM | 11.3 µM | 3.81 µM | 14 µM | 2.13 µM | 4.63 µM | 1.93 µM | 3.7 µM | 12 µM | 1.8 µM | 3.39 µM | 5.02 µM | 0.295 µM | 0.853 µM | 3.61 µM | 1.84 µM | 3.36 µM | 2.23 µM | 1.92 µM | 3.66 µM
